{"source": "patent US20120196899A1", "about": "“METHODS AND PRODUCTS FOR TREATING INFLAMMATION” (Rock Creek Pharmaceuticals, Inc., priority 2010, published 2012)", "assay": "Plasma toxicokinetics after single i.v. bolus", "format": "in vivo, Sprague-Dawley rats", "settings": "for concentration at 0.5 h / concentration at 1 h / concentration at 2 h / concentration at 4 h / concentration at 6 h / concentration at 8 h / AUC(0-inf) / MRT / Vd / half-life: Sprague-Dawley, rat, plasma; for concentration at 0.5 h / concentration at 1 h / concentration at 2 h / concentration at 4 h / concentration at 6 h / concentration at 8 h: intravenous, read-out: Avg. Conc. rat plasma; for AUC(0-inf) / MRT / Vd / half-life: iv; for half-life: read-out: t1/2 (converted)", "experimental": "Six rats (3 males and 3 females) were dosed per dose group. […] Plasma and brain homogenates were stored at −80° C. until analysis.\nAn additional 48 rats (24 males and 24 females) received a single intravenous dose via the tail vein at the same doses as mentioned above. At 30 and 360 minutes post administration, 6 rats (3 males and 3 females) per dose group, per time point were euthanized, bled via cardiac puncture, and perfused, and brains were collected. The brains were homogenized. Blood was spun, and plasma was collected. Plasma and brain homogenate were stored at −80° C.\nFour aliquots of each dose level formulation were collected and stored at −80° C. The test compound, corresponding dose level, number of animals, and sample collection times for Phase I of the study are shown in Table 3. The test compound, corresponding dose level, number of animals, and sample collection times for Phase II of the study are shown in Table 4. The physical signs of each animal were monitored following administration of the test compound.\nThe animals were weighed prior to dosing and received a single i.v. dose of either test compound at a volume of 5 mL/kg. Blood was collected via the venus plexus (retro-orbital) into tubes containing (K2) EDTA. No more than 0.5 mL was collected per time point. […] The brain was removed, weighed, homogenized in sterile 0.9% saline at a volume equal to its weight, and stored at −80° C.\nPlasma was separated according to the instructions for MICROTAINER® brand collection tubes (3 minutes, 2000×g). Plasma was decanted into microfuge tubes and stored at −80° C. Remaining test compound was stored at −80° C.\nThe signal was optimized for each compound by electrospray ionization (ESI) positive or negative ionization mode. A single ion mode (SIM) scan was used to optimize the Fragmentor for the precursor ion and a product ion analysis was used to identify the best fragment for analysis and to optimize the collision energy. The fragment which gave the most sensitive and specific signal was chosen.\nSample preparation. […] The amount of the test agent in the supernatant was determined by liquid chromatography tandem mass spectrometry (LC/MS/MS).\nAnalysis. Samples were analyzed by LC/MS/MS using an Agilent 6410 mass spectrometer coupled with an Agilent 1200 high pressure liquid chromatography (HPLC) and a CTC PAL chilled autosampler, all controlled by MassHunter software (Agilent). After separation on a hydrophilic interaction liquid chromatography (HILIC) HPLC column (Sepax) using an acetonitrile-ammonium acetate/acetic acid gradient system, peaks were analyzed by mass spectrometry (MS) using ESI ionization in multiple reaction monitoring (MRM) mode. MassHunter software was used to calculate the concentration of the test compounds in samples from the peak area using the appropriate calibration curves.\nCalibration samples. Calibration curves were determined for both rat plasma and brain homogenate. Calibration samples were prepared by diluting a 50× stock solution of the test compound in PBS with blank matrix to the appropriate concentration and these samples were prepared as described above in the sample preparation.", "key": {"[1]": {"settings": "female, 0.1 mg/kg, Anatabine 0.1 mg/kg, female"}, "[2]": {"settings": "female, 0.75 mg/kg, Anatabine 0.75 mg/kg, female"}, "[3]": {"settings": "female, 1 mg/kg, Anatabine 1.0 mg/kg, female"}, "[4]": {"settings": "male, 0.1 mg/kg, Anatabine 0.1 mg/kg, male"}, "[5]": {"settings": "male, 0.75 mg/kg, Anatabine 0.75 mg/kg, male"}, "[6]": {"settings": "male, 1 mg/kg, Anatabine 1.0 mg/kg, male"}}, "note": "Like-named read-outs stand apart in the source and are kept apart here."}
{"smiles": "C1=CCC(c2cccnc2)NC1", "note": "(racemic) [Anatabine, 1,2,3,6-tetrahydro-[2,3′]bipyridinyl]", "values": [{"measurement": "concentration at 0.5 h", "setting": "female, 0.1 mg/kg, Anatabine 0.1 mg/kg, female, 0.5 hr (2nd 0.5 hr line)", "result": 0.0317, "unit": "µg/mL"}, {"measurement": "concentration at 1 h", "setting": "[1]", "result": 0.011, "unit": "µg/mL"}, {"measurement": "concentration at 2 h", "setting": "[1]", "result": 0.0067, "unit": "µg/mL"}, {"measurement": "concentration at 4 h", "setting": "[1]", "result": 0.004, "unit": "µg/mL"}, {"measurement": "concentration at 6 h", "setting": "female, 0.1 mg/kg, Anatabine 0.1 mg/kg, female, 6 hr (1st 6 hr line, N=3)", "result": 0.0037, "unit": "µg/mL"}, {"measurement": "concentration at 6 h", "setting": "female, 0.1 mg/kg, Anatabine 0.1 mg/kg, female, 6 hr (2nd 6 hr line, N=1)", "result": 0.003, "unit": "µg/mL"}, {"measurement": "concentration at 0.5 h", "setting": "female, 0.75 mg/kg, Anatabine 0.75 mg/kg, female, 0.5 hr (1st 0.5 hr line)", "result": 0.19, "unit": "µg/mL"}, {"measurement": "concentration at 0.5 h", "setting": "female, 0.75 mg/kg, Anatabine 0.75 mg/kg, female, 0.5 hr (2nd 0.5 hr line)", "result": 0.354, "unit": "µg/mL"}, {"measurement": "concentration at 1 h", "setting": "[2]", "result": 0.173, "unit": "µg/mL"}, {"measurement": "concentration at 2 h", "setting": "[2]", "result": 0.0997, "unit": "µg/mL"}, {"measurement": "concentration at 4 h", "setting": "[2]", "result": 0.0453, "unit": "µg/mL"}, {"measurement": "concentration at 6 h", "setting": "female, 0.75 mg/kg, Anatabine 0.75 mg/kg, female, 6 hr (1st 6 hr line)", "result": 0.0183, "unit": "µg/mL"}, {"measurement": "concentration at 6 h", "setting": "female, 0.75 mg/kg, Anatabine 0.75 mg/kg, female, 6 hr (2nd 6 hr line)", "result": 0.023, "unit": "µg/mL"}, {"measurement": "concentration at 8 h", "setting": "[2]", "result": 0.011, "unit": "µg/mL"}, {"measurement": "concentration at 0.5 h", "setting": "female, 1 mg/kg, Anatabine 1.0 mg/kg, female, 0.5 hr (1st 0.5 hr line)", "result": 0.237, "unit": "µg/mL"}, {"measurement": "concentration at 0.5 h", "setting": "female, 1 mg/kg, Anatabine 1.0 mg/kg, female, 0.5 hr (2nd 0.5 hr line)", "result": 0.368, "unit": "µg/mL"}, {"measurement": "concentration at 1 h", "setting": "[3]", "result": 0.229, "unit": "µg/mL"}, {"measurement": "concentration at 2 h", "setting": "[3]", "result": 0.164, "unit": "µg/mL"}, {"measurement": "concentration at 4 h", "setting": "[3]", "result": 0.0607, "unit": "µg/mL"}, {"measurement": "concentration at 6 h", "setting": "female, 1 mg/kg, Anatabine 1.0 mg/kg, female, 6 hr (1st 6 hr line)", "result": 0.0293, "unit": "µg/mL"}, {"measurement": "concentration at 6 h", "setting": "female, 1 mg/kg, Anatabine 1.0 mg/kg, female, 6 hr (2nd 6 hr line)", "result": 0.023, "unit": "µg/mL"}, {"measurement": "concentration at 8 h", "setting": "[3]", "result": 0.0177, "unit": "µg/mL"}, {"measurement": "AUC(0-inf)", "setting": "female, 0.1 mg/kg", "result": "0.0379 ± 0.0159", "unit": "µg·h/mL"}, {"measurement": "MRT", "setting": "female, 0.1 mg/kg", "result": "2.55 ± 0.93", "unit": "h"}, {"measurement": "Vd", "setting": "female, 0.1 mg/kg", "result": "6.52 ± 0.66", "unit": "L/kg"}, {"measurement": "AUC(0-inf)", "setting": "female, 0.75 mg/kg", "result": "0.544 ± 0.0627", "unit": "µg·h/mL"}, {"measurement": "Vd", "setting": "female, 0.75 mg/kg", "result": "3.19 ± 0.15", "unit": "L/kg"}, {"measurement": "half-life", "setting": "female, 0.75 mg/kg, anatabine 0.75 mg/kg single i.v., female rats", "result": "1.73 ± 0.03", "unit": "h"}, {"measurement": "AUC(0-inf)", "setting": "female, 1 mg/kg", "result": 0.789, "unit": "µg·h/mL"}, {"measurement": "MRT", "setting": "female, 1 mg/kg", "result": 2.8, "unit": "h"}, {"measurement": "Vd", "setting": "female, 1 mg/kg", "result": "3.16 ± 0.15", "unit": "L/kg"}, {"measurement": "half-life", "setting": "female, 1 mg/kg, anatabine 1.0 mg/kg single i.v., female rats", "result": 1.84, "unit": "h"}, {"measurement": "concentration at 0.5 h", "setting": "male, 0.1 mg/kg, Anatabine 0.1 mg/kg, male, 0.5 hr (1st 0.5 hr line)", "result": 0.0153, "unit": "µg/mL"}, {"measurement": "concentration at 0.5 h", "setting": "male, 0.1 mg/kg, Anatabine 0.1 mg/kg, male, 0.5 hr (2nd 0.5 hr line)", "result": 0.0317, "unit": "µg/mL"}, {"measurement": "concentration at 1 h", "setting": "[4]", "result": 0.0123, "unit": "µg/mL"}, {"measurement": "concentration at 2 h", "setting": "[4]", "result": 0.0063, "unit": "µg/mL"}, {"measurement": "concentration at 4 h", "setting": "[4]", "result": 0.003, "unit": "µg/mL"}, {"measurement": "concentration at 6 h", "setting": "male, 0.1 mg/kg, Anatabine 0.1 mg/kg, male, 6 hr (2nd 6 hr line)", "result": 0.005, "unit": "µg/mL"}, {"measurement": "concentration at 0.5 h", "setting": "male, 0.75 mg/kg, Anatabine 0.75 mg/kg, male, 0.5 hr (1st 0.5 hr line)", "result": 0.181, "unit": "µg/mL"}, {"measurement": "concentration at 0.5 h", "setting": "male, 0.75 mg/kg, Anatabine 0.75 mg/kg, male, 0.5 hr (2nd 0.5 hr line)", "result": 0.302, "unit": "µg/mL"}, {"measurement": "concentration at 1 h", "setting": "[5]", "result": 0.152, "unit": "µg/mL"}, {"measurement": "concentration at 2 h", "setting": "[5]", "result": 0.0837, "unit": "µg/mL"}, {"measurement": "concentration at 4 h", "setting": "[5]", "result": 0.0347, "unit": "µg/mL"}, {"measurement": "concentration at 6 h", "setting": "male, 0.75 mg/kg, Anatabine 0.75 mg/kg, male, 6 hr (1st 6 hr line)", "result": 0.014, "unit": "µg/mL"}, {"measurement": "concentration at 6 h", "setting": "male, 0.75 mg/kg, Anatabine 0.75 mg/kg, male, 6 hr (2nd 6 hr line)", "result": 0.022, "unit": "µg/mL"}, {"measurement": "concentration at 8 h", "setting": "[5]", "result": 0.009, "unit": "µg/mL"}, {"measurement": "concentration at 0.5 h", "setting": "male, 1 mg/kg, Anatabine 1.0 mg/kg, male, 0.5 hr (1st 0.5 hr line)", "result": 0.272, "unit": "µg/mL"}, {"measurement": "concentration at 0.5 h", "setting": "male, 1 mg/kg, Anatabine 1.0 mg/kg, male, 0.5 hr (2nd 0.5 hr line)", "result": 0.399, "unit": "µg/mL"}, {"measurement": "concentration at 1 h", "setting": "[6]", "result": 0.234, "unit": "µg/mL"}, {"measurement": "concentration at 2 h", "setting": "[6]", "result": 0.123, "unit": "µg/mL"}, {"measurement": "concentration at 4 h", "setting": "[6]", "result": 0.0423, "unit": "µg/mL"}, {"measurement": "concentration at 6 h", "setting": "male, 1 mg/kg, Anatabine 1.0 mg/kg, male, 6 hr (1st 6 hr line)", "result": 0.018, "unit": "µg/mL"}, {"measurement": "concentration at 6 h", "setting": "male, 1 mg/kg, Anatabine 1.0 mg/kg, male, 6 hr (2nd 6 hr line)", "result": 0.027, "unit": "µg/mL"}, {"measurement": "concentration at 8 h", "setting": "[6]", "result": 0.0077, "unit": "µg/mL"}, {"measurement": "AUC(0-inf)", "setting": "male, 0.1 mg/kg", "result": "0.032 ± 0.0077", "unit": "µg·h/mL"}, {"measurement": "MRT", "setting": "male, 0.1 mg/kg", "result": "2.03 ± 0.41", "unit": "h"}, {"measurement": "Vd", "setting": "male, 0.1 mg/kg", "result": "5.29 ± 0.49", "unit": "L/kg"}, {"measurement": "half-life", "setting": "male, 0.1 mg/kg, anatabine 0.1 mg/kg single i.v., male rats", "result": "1.25 ± 0.32", "unit": "h"}, {"measurement": "AUC(0-inf)", "setting": "male, 0.75 mg/kg", "result": "0.464 ± 0.0362", "unit": "µg·h/mL"}, {"measurement": "MRT", "setting": "male, 0.75 mg/kg", "result": "2.5 ± 0.19", "unit": "h"}, {"measurement": "Vd", "setting": "male, 0.75 mg/kg", "result": "3.48 ± 0.18", "unit": "L/kg"}, {"measurement": "AUC(0-inf)", "setting": "male, 1 mg/kg", "result": 0.631, "unit": "µg·h/mL"}, {"measurement": "MRT", "setting": "male, 1 mg/kg", "result": 2.18, "unit": "h"}, {"measurement": "Vd", "setting": "male, 1 mg/kg", "result": "3.01 ± 0.12", "unit": "L/kg"}, {"measurement": "half-life", "setting": "male, 1 mg/kg, anatabine 1.0 mg/kg single i.v., male rats", "result": 1.44, "unit": "h"}, {"measurement": "plasma concentration between approximately 6 and 8 hours", "setting": "nicotine 0.4 mg/kg, anatabine 0.1 mg/kg single i.v., rats", "result": "below the limits of quantitation"}]}
